Test results: article PMC9981719, “A novel designed membrane-active peptide for the control of foodborne Salmonella enterica serovar Typhimurium” (Scientific Reports, 2023)
Values after ≈ are worked out from the molar mass of the structure shown. Like-named read-outs stand apart in the source and are kept apart here. Where no end group is shown, it is not given here.

Tests used:
[1] = test system: all Gram-positive strains; test: Geometric mean of MICs and therapeutic index, Gram-positive strains; format: cell-based; conditions: 4 Gram-positive strains
Description: (§1) All tests were done in triplicate.

[2] = test system: all Gram-negative strains; test: Geometric mean of MICs and therapeutic index, Gram-negative strains; format: cell-based; conditions: 4 Gram-negative strains
Description: as §1

[3] = test system: L929 mouse fibroblast cells; test: In vitro cytotoxicity, MTT assay; format: cell-based; conditions: 0.98–250 µg/ml, 24 h
Procedure: The cytotoxicity of A11 was evaluated by the 3-(4,5 dimethylthiazol-2-yl)-2,5-diphenyltetrazolium bromide (MTT) assay. L929 mouse fibroblast cells were cultured in Dulbecco's Modified Eagle Medium (DMEM) supplemented with 1% (v/v) of 100 IU/ml penicillin/streptomycin and 10% (v/v) fetal bovine serum (FBS). The cells were maintained in an air atmosphere containing the 5% CO2 under high humidity at 37 °C. L929 cell lines were seeded into a sterile 96-well plate (1 × 10^4 cells/well) then incubated overnight and treated with different concentrations of A11 (0.98–250 µg/ml) for 24 h. Media were removed, and cultured cells were incubated with 100 µl of MTT solution (4 mg/ml) for 4 h at 37 °C. After removal of MTT solution, the formed formazan was dissolved in 100 µl DMSO. Absorbance was measured by microplate reader at 570 nm; untreated cells served as negative control and melittin-treated cells as a positive control. Cell viability was determined following this equation: Cell viability%=ODTreated/ODControl×100

[4] = test system: Shigella sonnei ATCC11060; format: cell-based; conditions: triplicate; for MIC: broth microdilution in MHB, 37 °C, 24 h; for MBC: colony count on TSA from non-turbid MIC wells
Description: as §1

[5] = test system: Pseudomonas aeruginosa ATCC 27853; format: cell-based
Description: as §1

[6] = test system: Listeria monocytogenes 10403s; format: cell-based; conditions: for MIC: 24 h
Description: as §1

[7] = test system: Bacillus cereus ATCC 11778; format: cell-based
Description: as §1

[8] = test system: Acinetobactero baumanii MT strain; format: cell-based; conditions: for MIC: 24 h
Description: as §1

[9] = test system: Staphylococcus epidermidis ATCC 12228; format: cell-based; conditions: for MBC: ATCC 12228, 18 h
Description: as §1

[10] = test system: Salmonella Typhimurium ATCC 13311; format: cell-based, Salmonella enterica serovar Typhimurium
Description: as §1

[11] = test system: panel of human pathogenic bacterial strains; conditions: summary over all tested strains of Table 1
Procedure: Four Gram-negative bacteria including Salmonella enterica serovar Typhimurium (S. Typhimurium) ATCC 13311 and 16 drug-resistant S. enterica isolates (S. Typhimurium and monophasic variant 4,5,12:i:-), and four Gram-positive bacteria (Staphylococcus aureus ATCC 25923, Staphylococcus epidermidis ATCC 12228, Bacillus cereus ATCC 11778, and Listeria monocytogenes 10403s) were used as test microorganisms. […] All bacterial strains were cultured in a proper medium at 37 °C for 18 h (Table 1).
The minimum inhibitory concentration (MIC) of each peptide was evaluated by broth microdilution assay according to a modification described by the National Committee for Clinical Laboratory Standards (NCCLS)[22]. Mid-logarithmic phase bacterial cells were adjusted to an OD620 of 0.05 in Mueller–Hinton broth (MHB), a universal medium for antibacterial susceptibility testing[23]. Then, 50 µl of bacterial solution was incubated with 50 µl of two-fold serially diluted peptide (0.98–250 µg/ml in PBS) at 37 °C for 24 h with continuous shaking. […] The minimal bactericidal concentration (MBC) of each peptide was determined using a colony count assay. Fifty microliter aliquots of the mixture from each non-turbid well (no growth) from the MIC experiment was spread on Tryptic soy agar (TSA) and cultured overnight at 37 °C. […]

[12] = test system: Staphylococcus aureus ATCC 25923; format: cell-based; conditions: for MBC: ATCC 25923, 18 h; for MIC: ATCC 25923, 24 h
Description: as §1

[13] = broth microdilution in MHB, 37 °C, 24 h, triplicate
[14] = colony count on TSA from non-turbid MIC wells, triplicate
[15] = broth microdilution in MHB, 37 °C, triplicate

Q: What does the source list for `CC[C@H](C)[C@H](NC(=O)CN)C(=O)NCC(=O)N[C@@H](C)C(=O)N[C@H](C(=O)N[C@@H](CC(C)C)C(=O)N[C@@H](CCCCN)C(=O)N[C@H](C(=O)N[C@@H](CC(C)C)C(=O)N[C@H](C(=O)N[C@H](C(=O)NCC(=O)N[C@@H](CC(C)C)C(=O)N1CCC[C@H]1C(=O)N[C@@H](C)C(=O)N[C@@H](CC(C)C)C(=O)N[C@H](C(=O)N[C@@H](CO)C(=O)N[C@@H](Cc1c[nH]c2ccccc12)C(=O)N[C@H](C(=O)N[C@@H](CCCCN)C(=O)N[C@@H](CCCNC(=N)N)C(=O)N[C@@H](CCCCN)C(=O)N[C@@H](CCCNC(=N)N)C(=O)N[C@@H](CCC(N)=O)C(=O)N[C@@H](CCC(N)=O)C(N)=O)[C@@H](C)CC)[C@@H](C)CC)[C@@H](C)O)[C@@H](C)O)C(C)C)C(C)C` [Melittin, reference compound]?
A: GM (Gr. + strains), geometric mean of MIC values from all Gram-positive strains [1]: 3.91 µg/mL; GM (Gr.- strains), geometric mean of MIC values from all Gram-negative strains [2]: 6.8 µg/mL; cytotoxicity toward L929 cells (cell viability, MTT) [3]: strongly cytotoxic; MIC [4]: 3.91 µg/mL (≈ 1.37 µM); MBC [4]: 7.81 µg/mL (≈ 2.74 µM); MIC [5, 13]: 15.63 (15.63) µg/ml; MBC [5, 14]: 15.63 (15.63) µg/ml; MIC [6, 15]: 3.91 (3.91) µg/ml; MBC [6, 14]: 3.91 (3.91) µg/ml; MIC [7, 13]: 3.91 µg/mL (≈ 1.37 µM); MBC [7, 14]: 7.81 µg/mL (≈ 2.74 µM); MIC [8, 15]: 7.81 (7.81) µg/ml; MBC [8, 14]: 7.81 (7.81) µg/ml; MIC [9, 13]: 3.91 (3.91) µg/ml; MIC ([10]; broth microdilution in MHB, 37 °C, 24 h, visible inspection, triplicate): 3.91 (3.91) µg/ml; MBC ([10]; colony count on TSA from non-turbid MIC wells, overnight 37 °C, triplicate): 3.91 (3.91) µg/ml

Q: What does the source list for “GNPKVAHCASQIGRSTAWGAVSGA-NH2 [A0, acidocin J1132β, reference compound]”?
A: MIC over the tested bacteria [11]: > 250 µg/mL; MBC [12]: > 250 (> 250) µg/ml; MIC [12]: > 250 (> 250) µg/ml; MBC ([5]; ATCC 27853, 18 h): > 250 (> 250) µg/ml; MIC ([5]; ATCC 27853, 24 h): > 250 (> 250) µg/ml; MBC ([6]; 10403s, 18 h): > 250 (> 250) µg/ml; MIC ([6]; 10403s): > 250 (> 250) µg/ml; MBC ([7]; ATCC 11778, 18 h): > 250 (> 250) µg/ml; MIC ([7]; ATCC 11778, 24 h): > 250 (> 250) µg/ml; MBC ([8]; 18 h): > 250 (> 250) µg/ml; MIC [8]: > 250 (> 250) µg/ml; MBC [9]: > 250 (> 250) µg/ml; MIC ([9]; ATCC 12228, 24 h): > 250 (> 250) µg/ml; MBC ([10]; ATCC 13311, 18 h): > 250 (> 250) µg/ml; MIC ([10]; ATCC 13311, 24 h): > 250 (> 250) µg/ml

Q: With GVKKVAHKVVKIGRKVAW-NH2 [A6] as the molecule, how does the MIC [4] read?
A: 62.5 µg/mL

Q: What about the MBC [4] of the same molecule?
A: 125 µg/mL

Q: And the MBC [12]?
A: > 250 (> 250) µg/ml

Q: What about the MIC [12] of the same molecule?
A: > 250 (> 250) µg/ml

Q: What about the MBC ([5]; ATCC 27853, 18 h) of the same molecule?
A: 250 µg/mL

Q: What about the MIC ([5]; ATCC 27853, 24 h) of the same molecule?
A: 125 µg/mL

Q: And the MBC ([6]; 10403s, 18 h)?
A: 250 (> 250) µg/ml

Q: What about the MIC ([6]; 10403s) of the same molecule?
A: 250 (> 250) µg/ml

Q: And the MBC ([7]; ATCC 11778, 18 h)?
A: > 250 (> 250) µg/ml

Q: And the MIC ([7]; ATCC 11778, 24 h)?
A: > 250 (> 250) µg/ml

Q: What about the MBC ([8]; 18 h) of the same molecule?
A: 31.25 (31.25) µg/ml

Q: And the MIC [8]?
A: 31.25 (31.25) µg/ml

Q: And the MBC [9]?
A: > 250 (> 250) µg/ml

Q: And the MIC ([9]; ATCC 12228, 24 h)?
A: > 250 (> 250) µg/ml

Q: And the MBC ([10]; ATCC 13311, 18 h)?
A: 62.5 (62.5) µg/ml

Q: And the MIC ([10]; ATCC 13311, 24 h)?
A: 62.5 (62.5) µg/ml

Q: What does the source list for GVKKVAHKVVKIGRKVAWGAVSGV-NH2 [A4]?
A: MBC [12]: > 250 (> 250) µg/ml; MIC [12]: > 250 (> 250) µg/ml; MBC ([5]; ATCC 27853, 18 h): 250 (250) µg/ml; MIC ([5]; ATCC 27853, 24 h): 250 (250) µg/ml; MBC ([6]; 10403s, 18 h): 250 (> 250) µg/ml; MIC ([6]; 10403s): 250 (> 250) µg/ml; MBC ([7]; ATCC 11778, 18 h): > 250 (> 250) µg/ml; MIC ([7]; ATCC 11778, 24 h): > 250 (> 250) µg/ml; MBC ([8]; 18 h): 31.25 µg/mL; MIC [8]: 15.63 µg/mL; MBC [9]: 250 (250) µg/ml; MIC ([9]; ATCC 12228, 24 h): 250 (250) µg/ml; MBC ([10]; ATCC 13311, 18 h): 31.25 (31.25) µg/ml; MIC ([10]; ATCC 13311, 24 h): 31.25 (31.25) µg/ml

Q: Which results are given for GVKKVARKVVKIGRKVAR-NH2 [A9]?
A: MBC [12]: > 250 (> 250) µg/ml; MIC [12]: > 250 (> 250) µg/ml; MBC ([5]; ATCC 27853, 18 h): 250 (250) µg/ml; MIC ([5]; ATCC 27853, 24 h): 250 (250) µg/ml; MBC ([6]; 10403s, 18 h): 250 (> 250) µg/ml; MIC ([6]; 10403s): 250 (> 250) µg/ml; MBC ([7]; ATCC 11778, 18 h): > 250 (> 250) µg/ml; MIC ([7]; ATCC 11778, 24 h): > 250 (> 250) µg/ml; MBC ([8]; 18 h): 125 µg/mL; MBC [9]: > 250 µg/mL; MIC ([9]; ATCC 12228, 24 h): 62.5 µg/mL; MBC ([10]; ATCC 13311, 18 h): 62.5 (62.5) µg/ml; MIC ([10]; ATCC 13311, 24 h): 62.5 (62.5) µg/ml
